No end group written: not given here.
Columns and labels:
Human A549 cells = experiment: Apoptosis prevention assay (C2 ceramide, Annexin-5); type: cell-based; conditions: 10 micrograms per ml, 30 min pretreatment
Protocol: Human A549 cells (carcinomic human alveolar basal epithelial cells) were utilized in the experiments employing the Annexin-5 apoptosis assay. […] A549 cells were pretreated for 30 min with test peptides—10 micrograms per ml—followed by the exposure to C2 ceramide.

[1] = test system: Human Peripheral Blood Mononuclear Cells (PBMC); experiment: B cell proliferation assay (SAC plus Interleukin-2, 3H-thymidine); type: cell-based; conditions: 10 micrograms per ml
Protocol: Human Peripheral Blood Mononuclear Cells (PBMC) were obtained from normal human donors. The B cell proliferation was induced by stimulation of the cells with the B cell mitogen Staphylococcus aureus Cowans I (SAC) plus Interleukin-2, either in the absence (positive proliferation control), or in the presence of test peptides—10 micrograms per ml—to examine their effects on the B cell response. 10^5/well PBMC were plated in 96-well microtiter plates and assayed in duplicate with the peptides. […] At the end of incubation time, the plates were harvested and the cells counted by liquid scintillation for the incorporation of ^3H-thymidine as a measure of B cell proliferation.

[2] = test system: hepatitis B virus (HBV) ayw strain; experiment: HBV experimental assay system, secreted HBV DNA by TaqMan PCR in HepG2-2.2.15; type: cell-based; conditions: 10 micrograms per ml; HepG2-2.2.15 cells, six days
Protocol: HepG2-2.2.15 is a stable cell line containing the hepatitis B virus (HBV) ayw strain genome (ATCC Cat. No. CRL-11997). Antiviral compounds blocking any late step of viral replication such as transcription, translation, pregenome encapsidation, reverse transcription, particle assembly and release can be identified and characterized using this cell line.
HepG2-2.2.15 cells were plated in 96-well microtiter plates. After 16-24 hours the confluent monolayer of HepG2-2.2.15 cells was washed and the medium was replaced with complete medium containing test peptides-10 micrograms per ml—in duplicate. […] Three days later the culture medium was replaced with fresh medium containing the peptides. Six days following the initial administration of the peptides, the cell culture supernatants was collected, treated with pronase and DNAse and then used in a real-time quantitative TaqMan PCR assay. The PCR-amplified HBV DNA was detected in real-time by monitoring increases in fluorescence signals that result from the exonucleolytic degradation of a quenched fluorescence probe molecule that hybridizes to the mplified HBV DNA. For each PCR amplification, a standard curve was simultaneously generated using dilutions of purified HBV DNA.
Antiviral activity was calculated from the reduction in HBV DNA levels (% virus control). […]

human macrophages = experiment: TNF alpha production assay (LPS-stimulated macrophages, ELISA); type: cell-based; conditions: 10 micrograms per ml, 30 min preincubation; LPS 200 ng/ml, overnight
Protocol: Human Peripheral Blood Mononuclear Cells (PBMC) were obtained from normal human donors. The macrophages were prepared by adherence of PBMC to the plastic wells of the plates. […] Not stimulated macrophages served as negative background control. After overnight incubation, supernatants from the control and LPS-stimulated cultures were harvested and assayed for TNF alpha production employing a TNF alpha specific ELISA.

[3] = test system: Human Peripheral Blood Mononuclear Cells (PBMC); experiment: T cell proliferation assay (PHA, 3H-thymidine); conditions: 10 micrograms per ml, 3H-thymidine incorporation
Protocol: Human Peripheral Blood Mononuclear Cells (PBMC) were obtained from normal human donors. The T cell proliferation was induced by stimulation of the cells with the T cell mitogen phytohemagglutinin (PHA), either in the absence (positive proliferation control), or in the presence of test peptides—10 micrograms per ml—to examine their effects on the T cell proliferating response. 10^5/well PBMC were plated in 96-well microtiter plates and assayed in duplicate with the peptides. […] At the end of incubation time, the plates were harvested and the cells counted by liquid scintillation for the incorporation of ^3H-thymidine as a measure of T cell proliferation.

spleen cells = experiment: Th1/Th2 cytokine profiling assay (Ovalbumin-restimulated spleen cells, CBA kit); type: cell-based, Balb/c mice; conditions: 10 micrograms per ml; Ovalbumin restimulation, 72 hours

Tyr-Pro-Phe-Val-Glu-Pro-Ile-OH (YPFVEPI-OH) [Peptide 1]
prevention (reduction) of ceramide-induced apoptosis on human lung cells (Human A549 cells): 37.3% | induction of the proliferation of specifically stimulated human B-cells [1]: did not induce | inhibition of HBV replication as compared to the virus control infection [2]: 23.8% | induction of the LPS-induced TNF-alpha production in human macrophages (human macrophages): 18.4% | % of PHA induced Control (T cell proliferation) [3]: 98.8% | IFNγ spleen cells; TH1 response (% of control) (spleen cells): 218.6 % of control | IL-2 spleen cells (% of control) (spleen cells): 96.9 % of control | IL-4 spleen cells; TH2 response (% of control) (spleen cells): 142.1 % of control | IL-5 spleen cells; TH2 response (% of control) (spleen cells): 81.6 % of control | TNF-a spleen cells; TH1 response (% of control) (spleen cells): 143.7 % of control
